Tests used:
Experiment in all cases: relative viability (nuclei count vs DMSO), 5 days (fraction); higher = more cells survive
[1] = compound: Cc1ccc2nc(NCCN)c3ncc(C)n3c2c1
Method in brief: (§1)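 Five library-drug doses, separated by factors of √10, were pinned into 1536-well plates holding lung cancer cell lines after an overnight stay at 37 °C. Cells were fixed, permeabilised and Hoechst-stained in one step after 5 days without medium change, then imaged at 4×. Viability compares treated-well with vehicle-well nuclei, counted in MetaXpress, as a median across plates. Passing plates had control CV below 25% and at least one doubling.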

Salubrinal = compound: O=C(/C=C/c1ccccc1)NC(NC(=S)Nc1cccc2cccnc12)C(Cl)(Cl)Cl [Salubrinal]
Method in brief: as §1

[2] = compound: Cc1ccc2nc(NCCN)c3ncc(C)n3c2c1 + Nc1ncn([C@H]2C[C@H](O)[C@@H](CO)O2)c(=O)n1 [Decitabine] (partner 2 µM)
Method in brief: (§2)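 Five library-drug doses in √10 steps were combined with a fixed anchor-drug dose, or a single drug was given alone, by pin tool to lung cancer cell lines in 1536-well plates the day after seeding. Nuclei were stained and counted after 5 days. Relative viability is the nuclei count in treated wells over that in vehicle wells, taken as the median of duplicate plates.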

Salubrinal + Linsitinib = compound: O=C(/C=C/c1ccccc1)NC(NC(=S)Nc1cccc2cccnc12)C(Cl)(Cl)Cl [Salubrinal] + C[C@]1(O)C[C@@H](c2nc(-c3ccc4ccc(-c5ccccc5)nc4c3)c3c(N)nccn32)C1 [Linsitinib] (partner 1 µM)
Method in brief: as §2

For UMC-11, the relative viability ([1]; 0.04 µM) was 1.01, the relative viability ([1]; 0.1265 µM) was 0.918 and the relative viability ([1]; 0.4 µM) was 0.939. It also gave a relative viability ([1]; 1.265 µM) of 0.965, a relative viability ([1]; 4 µM) of 0.946 and a relative viability (Salubrinal; 0.08 µM) of 0.901. For the same cell line, the relative viability (Salubrinal; 0.253 µM) was 0.869, the relative viability (Salubrinal; 0.8 µM) was 1.09 and the relative viability (Salubrinal; 2.53 µM) was 1.01. For the same cell line, the relative viability (Salubrinal; 8 µM) was 1.03, the relative viability ([2]; first compound 0.04 µM) was 0.606 and the relative viability ([2]; first compound 0.1265 µM) was 0.432. It also gave a relative viability ([2]; first compound 0.4 µM) of 0.59, a relative viability ([2]; first compound 1.265 µM) of 0.679 and a relative viability ([2]; first compound 4 µM) of 0.624. The relative viability (Salubrinal + Linsitinib; first compound 0.08 µM) was 1.25, the relative viability (Salubrinal + Linsitinib; first compound 0.253 µM) was 0.807 and the relative viability (Salubrinal + Linsitinib; first compound 0.8 µM) was 1.21. For the same cell line, the relative viability (Salubrinal + Linsitinib; first compound 2.53 µM) was 0.998 and the relative viability (Salubrinal + Linsitinib; first compound 8 µM) was 0.955.
